Laboratory results as given in patent publication US8273724B2, “Melanoma antigens and their use in diagnostic and therapeutic methods” (The United States of America, as represented by the …, priority 1994, dated 2012).
Where a SMILES comes first, the peptide text is derived from it.

system: T2 cell lines preincubated with peptide; experiment: Recognition of modified peptides by natural epitope (M9-2, G9-154, G9-209, G9-280) reactive T-cells, 51Cr release on peptide-pulsed T2 cells (Example 5); assay type: cell-based, human
Method: Assessment of antigen recognition by CTL. ^51Cr release cytotoxic assays were performed to detect the recognition of peptide and melanoma cells by CTL. To analyze peptide recognition, T2 cell lines were preincubated for 2 h at 37° C. with 1 ug/ml peptide, washed and used as target cells in a ^51Cr release cytotoxic assay. The melanoma lines 624mel was established in our laboratory (See Example 1).
In order to make more immunogenic peptides for induction of anti-melanoma T-cells than natural melanoma epitopes, a variety of peptides in which at least 1 amino acid was changed based on consensus motifs in peptides binding to a specific MHC Class I allele Falk, et al. (1991) Nature 351:290; Kubo et al. (1994) J. Immunol 152:3913; Parker, K. et al. (1992) Journal of Immunology 149:3580; Ruppert, J. et al. (1993) Cell 74:929-937) (Tables 14, 15, 16, and 17). […] By changing amino acid at the 1st, 2nd, 3rd or 9th positions which are important for HLA-A2 binding to the peptide, but less important for recognition by T-cell receptors, artificial peptides which can bind to HLA-A2.1 with higher affinity and still be recognized by natural epitope specific T-cells may be generated.

| SMILES | Recognition by G9-154 reactive T-cell | Recognition by G9-209 reactive T-cell | Recognition by M9-2 reactive T-cell |
| --- | --- | --- | --- |
| CC(C)C[C@H](NC(=O)[C@H](C)N)C(=O)N[C@@H](Cc1c[nH]c2ccccc12)C(=O)NCC(=O)N[C@@H](CCC(N)=O)C(=O)N[C@@H](Cc1ccc(O)cc1)C(=O)N[C@@H](Cc1c[nH]c2ccccc12)C(=O)N[C@@H](CCC(N)=O)C(=O)N[C@H](C(=O)O)C(C)C [G9-154-1A2L] (H-ALWGQYWQV-OH; N-terminus and C-terminus assumed) | + (+, recognized) |  |  |
| CC(C)[C@H](NC(=O)[C@H](CO)NC(=O)[C@H](Cc1ccccc1)NC(=O)[C@@H]1CCCN1C(=O)[C@@H](NC(=O)[C@H](CCC(N)=O)NC(=O)[C@H](CC(=O)O)NC(=O)[C@@H](NC(=O)[C@@H](N)Cc1c[nH]c2ccccc12)[C@@H](C)O)C(C)C)C(=O)O [G9-209-1W] (H-WTDQVPFSV-OH; N-terminus and C-terminus assumed) |  | + (+, recognized) |  |
| CC[C@H](C)[C@H](N)C(=O)N[C@@H](CC(C)C)C(=O)N[C@@H](C)C(=O)N[C@@H](CCC(N)=O)C(=O)N[C@H](C(=O)N1CCC[C@H]1C(=O)N[C@@H](Cc1ccccc1)C(=O)N[C@@H](CO)C(=O)N[C@H](C(=O)O)C(C)C)C(C)C [G9-209-2L3A] |  | − |  |
| CC[C@H](C)[C@H](N)C(=O)N[C@@H](CC(C)C)C(=O)N[C@@H](Cc1ccccc1)C(=O)N[C@@H](CCC(N)=O)C(=O)N[C@H](C(=O)N1CCC[C@H]1C(=O)N[C@@H](Cc1ccccc1)C(=O)N[C@@H](CO)C(=O)N[C@H](C(=O)O)C(C)C)C(C)C [G9-209-2L3F] |  | − |  |
| CC[C@H](C)[C@H](N)C(=O)N[C@@H](CC(C)C)C(=O)N[C@@H](CCSC)C(=O)N[C@@H](CCC(N)=O)C(=O)N[C@H](C(=O)N1CCC[C@H]1C(=O)N[C@@H](Cc1ccccc1)C(=O)N[C@@H](CO)C(=O)N[C@H](C(=O)O)C(C)C)C(C)C [G9-209-2L3M] |  | − |  |
| CC[C@H](C)[C@H](N)C(=O)N[C@@H](CC(C)C)C(=O)N[C@@H](CO)C(=O)N[C@@H](CCC(N)=O)C(=O)N[C@H](C(=O)N1CCC[C@H]1C(=O)N[C@@H](Cc1ccccc1)C(=O)N[C@@H](CO)C(=O)N[C@H](C(=O)O)C(C)C)C(C)C [G9-209-2L3S] (H-ILSQVPFSV-OH; N-terminus and C-terminus assumed) |  | − |  |
| CC[C@H](C)[C@H](N)C(=O)N[C@@H](CC(C)C)C(=O)N[C@@H](Cc1c[nH]c2ccccc12)C(=O)N[C@@H](CCC(N)=O)C(=O)N[C@H](C(=O)N1CCC[C@H]1C(=O)N[C@@H](Cc1ccccc1)C(=O)N[C@@H](CO)C(=O)N[C@H](C(=O)O)C(C)C)C(C)C [G9-209-2L3W] (H-ILWQVPFSV-OH; N-terminus and C-terminus assumed) |  | − |  |
| CC[C@H](C)[C@H](N)C(=O)N[C@@H](CC(C)C)C(=O)N[C@@H](Cc1ccc(O)cc1)C(=O)N[C@@H](CCC(N)=O)C(=O)N[C@H](C(=O)N1CCC[C@H]1C(=O)N[C@@H](Cc1ccccc1)C(=O)N[C@@H](CO)C(=O)N[C@H](C(=O)O)C(C)C)C(C)C [G9-209-2L3Y] (H-ILYQVPFSV-OH; N-terminus and C-terminus assumed) |  | − |  |
| CC[C@H](C)[C@H](N)C(=O)N[C@H](C(=O)N[C@@H](C)C(=O)N[C@@H](CCC(N)=O)C(=O)N[C@H](C(=O)N1CCC[C@H]1C(=O)N[C@@H](Cc1ccccc1)C(=O)N[C@@H](CO)C(=O)N[C@H](C(=O)O)C(C)C)C(C)C)[C@@H](C)O [G9-209-3A] |  | − |  |
| CC[C@H](C)[C@H](N)C(=O)N[C@H](C(=O)N[C@@H](Cc1ccccc1)C(=O)N[C@@H](CCC(N)=O)C(=O)N[C@H](C(=O)N1CCC[C@H]1C(=O)N[C@@H](Cc1ccccc1)C(=O)N[C@@H](CO)C(=O)N[C@H](C(=O)O)C(C)C)C(C)C)[C@@H](C)O [G9-209-3F] (H-ITFQVPFSV-OH; N-terminus and C-terminus assumed) |  | − |  |
| CC[C@H](C)[C@H](N)C(=O)N[C@H](C(=O)N[C@@H](CCSC)C(=O)N[C@@H](CCC(N)=O)C(=O)N[C@H](C(=O)N1CCC[C@H]1C(=O)N[C@@H](Cc1ccccc1)C(=O)N[C@@H](CO)C(=O)N[C@H](C(=O)O)C(C)C)C(C)C)[C@@H](C)O [G9-209-3M] (H-ITMQVPFSV-OH; N-terminus and C-terminus assumed) |  | − |  |
| CC[C@H](C)[C@H](N)C(=O)N[C@H](C(=O)N[C@@H](CO)C(=O)N[C@@H](CCC(N)=O)C(=O)N[C@H](C(=O)N1CCC[C@H]1C(=O)N[C@@H](Cc1ccccc1)C(=O)N[C@@H](CO)C(=O)N[C@H](C(=O)O)C(C)C)C(C)C)[C@@H](C)O [G9-209-3S] |  | − |  |
| CC[C@H](C)[C@H](N)C(=O)N[C@H](C(=O)N[C@@H](Cc1c[nH]c2ccccc12)C(=O)N[C@@H](CCC(N)=O)C(=O)N[C@H](C(=O)N1CCC[C@H]1C(=O)N[C@@H](Cc1ccccc1)C(=O)N[C@@H](CO)C(=O)N[C@H](C(=O)O)C(C)C)C(C)C)[C@@H](C)O [G9-209-3W] |  | − |  |
| CC[C@H](C)[C@H](N)C(=O)N[C@H](C(=O)N[C@@H](Cc1ccc(O)cc1)C(=O)N[C@@H](CCC(N)=O)C(=O)N[C@H](C(=O)N1CCC[C@H]1C(=O)N[C@@H](Cc1ccccc1)C(=O)N[C@@H](CO)C(=O)N[C@H](C(=O)O)C(C)C)C(C)C)[C@@H](C)O [G9-209-3Y] (H-ITYQVPFSV-OH; N-terminus and C-terminus assumed) |  | − |  |
| CC[C@H](C)[C@H](NC(=O)CNC(=O)[C@H](CC(C)C)NC(=O)[C@@H](N)Cc1ccccc1)C(=O)NCC(=O)N[C@H](C(=O)N[C@@H](CC(C)C)C(=O)N[C@H](C(=O)N[C@H](C(=O)O)C(C)C)[C@@H](C)O)[C@@H](C)CC [M9-2-1F2L] |  |  | − |
| CC[C@H](C)[C@H](NC(=O)CNC(=O)[C@@H](NC(=O)[C@@H](N)CCCCN)[C@@H](C)CC)C(=O)NCC(=O)N[C@H](C(=O)N[C@@H](CC(C)C)C(=O)N[C@H](C(=O)N[C@H](C(=O)O)C(C)C)[C@@H](C)O)[C@@H](C)CC [M9-2-1K2I] |  |  | − |
| CC[C@H](C)[C@H](NC(=O)CNC(=O)[C@H](CC(C)C)NC(=O)[C@@H](N)CCCCN)C(=O)NCC(=O)N[C@H](C(=O)N[C@@H](CC(C)C)C(=O)N[C@H](C(=O)N[C@H](C(=O)O)C(C)C)[C@@H](C)O)[C@@H](C)CC [M9-2-1K2L] |  |  | − |
| CC[C@H](C)[C@H](NC(=O)CNC(=O)[C@H](CCSC)NC(=O)[C@@H](N)CCCCN)C(=O)NCC(=O)N[C@H](C(=O)N[C@@H](CC(C)C)C(=O)N[C@H](C(=O)N[C@H](C(=O)O)C(C)C)[C@@H](C)O)[C@@H](C)CC [M9-2-1K2M] |  |  | − |
| CC[C@H](C)[C@H](NC(=O)CNC(=O)[C@H](CC(C)C)NC(=O)[C@@H](N)Cc1c[nH]c2ccccc12)C(=O)NCC(=O)N[C@H](C(=O)N[C@@H](CC(C)C)C(=O)N[C@H](C(=O)N[C@H](C(=O)O)C(C)C)[C@@H](C)O)[C@@H](C)CC [M9-2-1W2L] |  |  | − |
| CC[C@H](C)[C@H](NC(=O)CNC(=O)[C@H](C)NC(=O)[C@@H](N)Cc1c[nH]c2ccccc12)C(=O)NCC(=O)N[C@H](C(=O)N[C@@H](CC(C)C)C(=O)N[C@H](C(=O)N[C@H](C(=O)O)C(C)C)[C@@H](C)O)[C@@H](C)CC [M9-2-1W] |  |  | + (+, recognized) |
| CC[C@H](C)[C@H](NC(=O)CNC(=O)[C@H](CC(C)C)NC(=O)[C@@H](N)Cc1ccc(O)cc1)C(=O)NCC(=O)N[C@H](C(=O)N[C@@H](CC(C)C)C(=O)N[C@H](C(=O)N[C@H](C(=O)O)C(C)C)[C@@H](C)O)[C@@H](C)CC [M9-2-1Y2L] |  |  | − |
| CC[C@H](C)[C@H](NC(=O)CNC(=O)[C@H](C)NC(=O)[C@@H](N)Cc1ccc(O)cc1)C(=O)NCC(=O)N[C@H](C(=O)N[C@@H](CC(C)C)C(=O)N[C@H](C(=O)N[C@H](C(=O)O)C(C)C)[C@@H](C)O)[C@@H](C)CC [M9-2-1Y] |  |  | − |
| CC[C@H](C)[C@H](NC(=O)CNC(=O)[C@@H](NC(=O)[C@H](C)N)[C@@H](C)CC)C(=O)NCC(=O)N[C@H](C(=O)N[C@@H](CC(C)C)C(=O)N[C@H](C(=O)N[C@H](C(=O)O)C(C)C)[C@@H](C)O)[C@@H](C)CC [M9-2-2I] |  |  | − |
| CC[C@H](C)[C@H](NC(=O)CNC(=O)[C@@H](NC(=O)[C@H](Cc1ccccc1)NC(=O)[C@H](CC(C)C)NC(=O)[C@H](C)N)[C@@H](C)CC)C(=O)N[C@@H](CC(C)C)C(=O)N[C@H](C(=O)N[C@H](C(=O)O)C(C)C)[C@@H](C)O [M9-2-2L3F] |  |  | − |
| CC[C@H](C)[C@H](NC(=O)CNC(=O)[C@@H](NC(=O)[C@H](Cc1c[nH]c2ccccc12)NC(=O)[C@H](CC(C)C)NC(=O)[C@H](C)N)[C@@H](C)CC)C(=O)N[C@@H](CC(C)C)C(=O)N[C@H](C(=O)N[C@H](C(=O)O)C(C)C)[C@@H](C)O [M9-2-2L3W] |  |  | − |
| CC[C@H](C)[C@H](NC(=O)CNC(=O)[C@@H](NC(=O)[C@H](Cc1ccc(O)cc1)NC(=O)[C@H](CC(C)C)NC(=O)[C@H](C)N)[C@@H](C)CC)C(=O)N[C@@H](CC(C)C)C(=O)N[C@H](C(=O)N[C@H](C(=O)O)C(C)C)[C@@H](C)O [M9-2-2L3Y] |  |  | − |
